Tests used:
Type in all cases: biochemical
[1] = molecular target: T1, Wild type trpE anthranilate synthase (Escherichia coli, UniProt P00895); experiment: Ki value of anthranilate synthase (AS) to L-tryptophan, wild type
T1 construct: endogenous in cells
Experimental: (§1) Following the culture for 24–48 hours at 37° C., 5-methyltryptophan resistant clones were seeded on the aforementioned agar medium. In order to examine properties of the obtained mutant strain, Ki value of AS to L-tryptophan was measured (Bauerle R. et al., Methods in Enzymology, 142, pp.366–386, 1987). As a result, the mutant strains could be classified into two classes. The class 1 mutant strains had feedback resistant anthranilate synthase. […] The AS genes of these mutant strains were cloned and their nucleotide sequences were determined. Chromosomal DNA of each mutant strain was isolated and digested with restriction enzymes NheI and ClaI to isolate a fragment of about 5 kb, and this fragment was ligated with the NheI/ClaI fragment (4158 bp) of pBR322.
(§2) E. coli KB 862 (trpE) (DSM7196) was transformed with the ligation reaction product. A clone that could grow on a minimal medium not containing L-tryptophan was selected. All the plasmids complementing the trpE mutation contained the NheI/ClaI fragment of 5 kb. Further, this 5 kb NheI/ClaI fragment contained trpE, trpD, a sequence about 0.8 kb upstream from trpE, and a sequence about 1 kb downstream from trpD. Differences in amino acid sequences of mutant AS encoded by plasmids (pE0, pE5, pE6, pE8) contained in the mutant strains and their Ki values are shown in Table 1.

[2] = molecular target: T2, TrpE6 mutant anthranilate synthase (Escherichia coli, UniProt P00895, K50E/S40F); experiment: Ki value of anthranilate synthase (AS) to L-tryptophan, TrpE6
T2 construct: endogenous in cells; host or cells: 5-methyltryptophan-resistant mutant of E. coli K12 YMC9 (gene later cloned as pE6)
T2 sequence (P00895 whole entry S40F/K50E): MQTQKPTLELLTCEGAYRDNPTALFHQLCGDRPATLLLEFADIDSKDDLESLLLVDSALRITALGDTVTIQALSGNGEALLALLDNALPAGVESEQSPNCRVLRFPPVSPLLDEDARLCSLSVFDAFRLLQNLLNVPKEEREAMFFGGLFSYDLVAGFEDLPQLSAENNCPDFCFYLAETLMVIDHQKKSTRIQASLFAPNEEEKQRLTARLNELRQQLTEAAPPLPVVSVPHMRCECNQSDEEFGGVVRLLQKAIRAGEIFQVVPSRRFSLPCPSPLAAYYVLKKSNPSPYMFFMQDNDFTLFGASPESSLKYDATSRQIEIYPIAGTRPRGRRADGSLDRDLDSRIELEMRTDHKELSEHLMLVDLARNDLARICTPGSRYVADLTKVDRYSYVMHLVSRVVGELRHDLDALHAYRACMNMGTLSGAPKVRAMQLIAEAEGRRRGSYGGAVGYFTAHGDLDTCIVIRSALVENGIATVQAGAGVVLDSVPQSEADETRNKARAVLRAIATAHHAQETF
T2 sequence (P00904 2-531, further chain): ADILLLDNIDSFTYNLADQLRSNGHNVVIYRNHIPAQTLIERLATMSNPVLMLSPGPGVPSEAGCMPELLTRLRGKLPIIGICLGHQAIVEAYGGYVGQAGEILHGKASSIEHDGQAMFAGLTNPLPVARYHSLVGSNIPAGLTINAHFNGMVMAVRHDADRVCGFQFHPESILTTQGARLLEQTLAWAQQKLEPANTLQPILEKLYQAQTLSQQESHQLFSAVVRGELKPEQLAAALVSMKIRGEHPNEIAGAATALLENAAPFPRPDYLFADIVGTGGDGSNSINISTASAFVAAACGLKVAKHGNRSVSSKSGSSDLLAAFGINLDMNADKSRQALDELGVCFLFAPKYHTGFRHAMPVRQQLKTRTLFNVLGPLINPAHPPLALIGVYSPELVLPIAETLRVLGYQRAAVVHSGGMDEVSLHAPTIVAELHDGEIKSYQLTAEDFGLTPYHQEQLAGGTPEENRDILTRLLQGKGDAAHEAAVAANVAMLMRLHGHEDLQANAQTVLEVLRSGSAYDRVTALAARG
Experimental: as §1, §2

[3] = molecular target: T3, TrpE5 mutant anthranilate synthase (Escherichia coli, UniProt P00895, P21S); experiment: Ki value of anthranilate synthase (AS) to L-tryptophan, TrpE5
T3 construct: endogenous in cells; host or cells: 5-methyltryptophan-resistant mutant of E. coli K12 YMC9 (gene later cloned as pE5)
T3 sequence (P00904 2-531): as the sequence (P00904 2-531, further chain) above
T3 sequence (P00895 whole entry P21S): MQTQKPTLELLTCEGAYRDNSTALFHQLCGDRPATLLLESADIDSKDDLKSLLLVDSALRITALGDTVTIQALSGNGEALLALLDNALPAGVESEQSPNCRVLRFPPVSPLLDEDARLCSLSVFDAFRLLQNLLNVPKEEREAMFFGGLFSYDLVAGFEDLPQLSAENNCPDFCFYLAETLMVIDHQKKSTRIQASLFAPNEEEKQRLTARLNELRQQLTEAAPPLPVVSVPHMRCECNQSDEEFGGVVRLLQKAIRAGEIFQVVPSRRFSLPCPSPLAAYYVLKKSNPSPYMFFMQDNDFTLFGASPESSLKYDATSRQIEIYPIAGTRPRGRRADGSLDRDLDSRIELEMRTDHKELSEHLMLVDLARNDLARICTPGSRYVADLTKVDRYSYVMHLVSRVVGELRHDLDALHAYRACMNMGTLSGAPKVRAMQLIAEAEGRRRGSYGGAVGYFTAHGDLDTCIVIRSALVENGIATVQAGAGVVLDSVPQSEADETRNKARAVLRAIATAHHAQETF
Experimental: as §1, §2

[4] = molecular target: T4, TrpE0 mutant anthranilate synthase (Escherichia coli, UniProt P00895, K50E); experiment: Ki value of anthranilate synthase (AS) to L-tryptophan, TrpE0
T4 construct: endogenous in cells; host or cells: 5-methyltryptophan-resistant mutant of E. coli K12 YMC9 (gene later cloned as pE0)
T4 sequence (P00904 2-531): as the sequence (P00904 2-531, further chain) above
T4 sequence (P00895 whole entry K50E): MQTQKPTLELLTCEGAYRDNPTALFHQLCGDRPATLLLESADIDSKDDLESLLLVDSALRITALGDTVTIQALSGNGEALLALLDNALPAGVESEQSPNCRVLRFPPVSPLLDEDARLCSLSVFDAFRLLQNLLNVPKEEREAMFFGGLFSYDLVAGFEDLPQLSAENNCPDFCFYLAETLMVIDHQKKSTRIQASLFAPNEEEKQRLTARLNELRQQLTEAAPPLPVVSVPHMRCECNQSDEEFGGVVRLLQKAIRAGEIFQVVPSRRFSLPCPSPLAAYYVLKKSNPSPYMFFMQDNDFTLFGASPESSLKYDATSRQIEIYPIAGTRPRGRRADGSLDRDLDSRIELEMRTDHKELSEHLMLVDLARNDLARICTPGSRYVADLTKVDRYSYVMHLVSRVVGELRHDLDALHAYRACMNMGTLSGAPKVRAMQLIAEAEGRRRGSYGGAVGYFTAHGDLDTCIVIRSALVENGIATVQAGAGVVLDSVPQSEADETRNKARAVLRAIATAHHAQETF
Experimental: as §1, §2

T1 sequence (P00904 2-531): as the sequence (P00904 2-531, further chain) above
T1 sequence (P00895 whole entry): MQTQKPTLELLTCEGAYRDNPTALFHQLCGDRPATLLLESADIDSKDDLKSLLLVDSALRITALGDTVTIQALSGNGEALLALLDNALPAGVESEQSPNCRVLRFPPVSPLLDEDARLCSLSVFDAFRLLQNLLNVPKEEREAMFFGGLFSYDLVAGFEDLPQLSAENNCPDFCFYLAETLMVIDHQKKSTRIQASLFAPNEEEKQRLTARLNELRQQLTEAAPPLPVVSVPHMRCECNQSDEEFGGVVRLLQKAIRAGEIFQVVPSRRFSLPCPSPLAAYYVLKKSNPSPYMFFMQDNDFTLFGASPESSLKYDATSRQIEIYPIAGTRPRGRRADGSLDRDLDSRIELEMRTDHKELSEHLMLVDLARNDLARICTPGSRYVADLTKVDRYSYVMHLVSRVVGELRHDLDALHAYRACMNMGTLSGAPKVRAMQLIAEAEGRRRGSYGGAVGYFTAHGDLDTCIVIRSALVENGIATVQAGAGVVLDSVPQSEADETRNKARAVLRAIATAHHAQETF

## N[C@@H](Cc1c[nH]c2ccccc12)C(=O)O [L-tryptophan]
[1]
  Ki: 10 µM
[2]
  Ki: > 15000 µM
[3]
  Ki: 3000 µM
[4]
  Ki: 100 µM

Reference: US7045320B2, “Methods for producing L-amino acids” (priority 2001, dated 2006)
